Patent US8748600B2, “Cyclic triazo sodium channel blockers” (University of Greenwich, priority 2009, dated 2014)

Experiments:
[1] = target: T1, DiHydroFolate Reductase (DHFR) (Rattus norvegicus, UniProt Q920D2); experiment: Inhibition of binding of [3H]methotrexate to rat liver homogenate supernatant (DHFR); details: read-out: DHFR (% inhibition @ 125 μm)
T1 construct: from tissue; host or cells: rat liver homogenate, 47,500 x g supernatant
T1 sequence (Q920D2 1-187): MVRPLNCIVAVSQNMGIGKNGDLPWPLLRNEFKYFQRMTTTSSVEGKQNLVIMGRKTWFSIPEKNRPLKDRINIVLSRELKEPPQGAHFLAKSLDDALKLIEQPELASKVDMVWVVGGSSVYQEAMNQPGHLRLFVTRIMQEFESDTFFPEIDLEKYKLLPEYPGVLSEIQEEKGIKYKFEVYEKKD
Experimental: All steps were carried out at 4° (or on ice). Freshly dissected rat liver was dissected into 0.25M ice-cold Sucrose and subsequently homogenised (U-turrax) in 50 mM pH 6.0 phosphate buffer (10 ml/g tissue) containing 15 mM Dithiothreitol. The resulting homogenate was centrifuged @ 47,500×g for 20 min and supernatant (filtered through cotton wool to remove fatty lumps) stored @-80° before use (Rothenberg et al).
Inhibition of the binding of [^3H]methotrexate to rat liver homogenate supernatant fractions were carried out essentially as described by Arons et al, 1975.

sodium channel (Nach) = experiment: Inhibition of binding of [3H]BTX-B to rat forebrain homogenates; details: extrapolated IC50; [3H]BTX-B binding
Experimental: Experiments were performed using forebrain (whole brain less cerebellum/medulla) from Male Wistar rats weighing 175-250 g. All efforts were made to reduce the number of animals used and all experiments were carried out in accordance with the UK Animals (Scientific Procedures) Act, 1986 and the European Community Council Directive of 24 Nov. 1986 (86/609/EEC). Following killing of animals by stunning and decapitation, the forebrain (whole brain less cerebellum/medulla) was rapidly dissected and transferred to a weighed tube containing ice-cold 0.25M sucrose.
Homogenates were prepared by transferring the known weight of forebrain to a cooled tube containing 9 volumes of ice-cold 50 mM pH 7.4 HEPES buffer. The mixture was homogenised @ 4° by 3×5 sec bursts of an Ultra-Turrax™ homogeniser set at maximum speed. The resulting homogenate was centrifuged at 40,000×g (average) at 4° for 15 min and the supernatant discarded. The resulting pellet was resuspended in 9 volumes of fresh ice-cold pH 7.4 buffer (as above), the centrifugation step was repeated and the resulting pellet resuspended in the [^3H]BTX-B binding buffer at a concentration of 20-25 mg wet weight per ml assay buffer.
Both assays were carried out using 14 ml polypropylene test tubes to which a range of concentrations of the compounds under test were added.
[^3H]BTX-B binding was carried out using the method described by Catterall et al (1981), except that both bovine serum albumin and TTX were omitted from the incubation medium.
IC50 values were obtained from radioligand displacement or guanidine flux inhibition curves by plotting log10 concentration vs bound ligand/guanidine uptake according the equation:— y=Rmin+Rsp/{1+exp [−n(x−C)]}
and • C=IC50 (i.e. concentration required to inhibit 50% of specific binding Hippocampal Slice Assay

SMILES | inhibition at […] [1] [%] | IC50 (sodium channel (Nach)) [µM]
Nc1nnc(C(Cc2ccccc2)c2ccccc2)c(N)n1 (stereo not drawn) [CEN-241] | 90 | –
Nc1nnc(C2(c3cccc(F)c3)CCCC2)c(N)n1 [CEN-236] | 14 | 4
Nc1nnc(C2CC2c2ccccc2)c(N)n1 (stereo not drawn) [CEN-238] | – | > 190
Cc1ccc(C2(c3nnc(N)nc3N)CCCCC2)cc1 [CEN-239] | 73 | < 0.5
COc1ccc(C2(c3nnc(N)nc3N)CCCC2)cc1 [CEN-234] | 22 | 3
Nc1nnc(C2(c3ccc(Cl)cc3Cl)CC2)c(N)n1 [CEN-235] | 63 | 8
Nc1nnc(C2(c3ccccc3)CCCCC2)c(N)n1 [CEN-230] | 0 | 23
Nc1nnc(C2(c3ccccc3)CC2)c(N)n1 [CEN-240] | 8 | –
Nc1nnc(C(c2ccc(F)cc2)c2ccc(F)cc2)c(N)n1 [CEN-247] | 0 | 9
COc1ccc(C2(c3nnc(N)nc3N)CC2)cc1 [CEN-244] | 0 | 115
Cc1ccc(C2(c3nnc(N)nc3N)CCCC2)cc1 [CEN-237] | 70 | < 0.5
COc1ccc(C2(c3nnc(N)nc3N)CCCCC2)cc1 [CEN-231] | – | 1
Nc1nnc(C2(c3ccccc3)CCCC2)c(N)n1 [CEN-232] | 100 | 5
Nc1nnc(-c2cccc(OCc3cccc4ccccc34)c2)c(N)n1 [CEN-245] | 55 | 57
